Solubility data for two compounds are collected here from patent publication US7767812B2, “Crystals of pyrimidine compound and process for producing the same” (Eisai R&D Management Co., Ltd., priority 2005, dated 2010).

A short description of the data set: Solubility in Disintegration Test 2nd fluid (Test Example 1). The note with it: approx. 50 mg in 500 mL Disintegration Test 2nd fluid (Japanese pharmacopoeia, 14th Edition), paddles 50 rpm, concentration by HPLC over time (FIG. 17); compared with crystal form B.

Description: First, 500 mL of the 2nd fluid was stirred at 50 rpm with paddles (Toyama Co., Ltd.; DISSOLUTION TESTER), then after the crystals and amorphous compound were added, the solution was sampled at each time period. The sampled solutions were filtered through a filter (0.2 μm), and the concentration of 5-[2-amino-4-(2-furyl)pyrimidin-5-yl]-1-methylpyridin-2(1H)-one in the solution was measured by HPLC method. The conditions for HPLC method are shown below.
Column: CAPCELL PAK C18 AQ, S-5 μm, 4.6 mm ID×250 mm length (Shiseido, Japan)
Column temperature: a constant temperature around 30° C.
Detection wavelength: 262 nm
Solution A: acetonitrile/water/1M ammonium acetate (10:1000:1, v/v/v)
Solution B: acetonitrile/water/1M ammonium acetate (900:100:1, v/v/v)

Consider `Cn1cc(-c2cnc(N)nc2-c2ccco2)ccc1=O` [crystal form C, 5-[2-amino-4-(2-furyl)pyrimidin-5-yl]-1-methylpyridin-2(1H)-one], for which the solubility result is listed as “superior in solubility than the crystal form B”. Next, `Cn1cc(-c2cnc(N)nc2-c2ccco2)ccc1=O.O` [hydrate crystals, 5-[2-amino-4-(2-furyl)pyrimidin-5-yl]-1-methylpyridin-2(1H)-one hydrate]: “superior in solubility than the crystal form B”.
